Legend:
[1] = Example 2: titration of amine coated core sand in brine #2 with 1N HCl, amine in solution by GC; type: physicochemical; settings: core sand in brine #2, titrated with 1N HCl
Method: Helium was used as the carrier gas.
38 milligrams (mg) of N N-Dimethyl-1-Dodecanamine (hereafter referred to as “the amine”) was added to 10.210 gr of Pentane. This solution was added to 10.1845 gr of specific sand layers (Oa and Ob) obtained from the Schrader Bluff formation of the Milne Point Unit of the Alaskan North slope. The oil content of the sand was first removed using a mixture of methanol and toluene (50/50, volume/volume) as solvent washes. The solvent mixture was subsequently evaporated off the core sand to produce clean, dry, flowable core sand. This sand was mixed with the amine and pentane solution to produce a slurry. This slurry was thoroughly mixed and the pentane was evaporated off leaving the amine on the sand (hereafter referred to as sand/amine mixture). 100 ml of brine #2 (Table 3) was added to the sand/amine mixture to create the sand/amine/brine mixture. […] The fact that the amine was not detected underlined its strong binding to the sand particles. […] The data underlines the remarkable efficiency of an acid at ionizing and removing the amine from the sand.

[2] = Example 4: titration of sand/amine/brine mixture with 10% nitric acid, amine in solution by GC; settings: core sand in brine #2, titrated with 10 wt % nitric acid
Method: (§1) Concentration of amines, in media and water, were analyzed by gas chromatography (GC). An Agilent Model 5890 (Agilent, Wilmington, Del.), GC equipped with a […] and a split/splitless injector, a DB-FFAP column (30 meter length×0.32 millimeter (mm) […]×0.25 micrometer particle size). […] The system was calibrated using a sample of N,N-Dimethyl-1-Dodecaneamine (Aldrich). Helium was used as the carrier gas. A temperature gradient of 50 degrees Celsius (° C.) to 250° C. at 30° C. increase per minute (min) was used.
The procedure outlined in Example 2 was used to produce the sand/amine mixture except that 519 mg of the amine, 10 gr of Pentane. and 60.062 gr of sand from the Oa and Ob layers were used. 29.065 gr of this sand/amine mixture was added to 100 ml of brine #2 (Table 3) to create the sand/amine/brine mixture. […] The concentration of the amine in the water should have been about […] if all the amine was dissolved in brine #2. […] 0.1 ml of 10 weight percent (wt %) nitric acid in water was added to this solution, and the pH and the amine concentration were measured again.

[3] = Example 5: titration of sand/amine/brine mixture with 10% acetic acid, amine in solution by GC; settings: core sand in brine #2, titrated with 10 wt % acetic acid
Method: as §1
The same procedure outlined in Example 4 was repeated here to produce the sand/amine mixture. 30.85 grams (gr) of the sand/amine mixture was added to 100 ml of brine #2 (Table 3) to create the sand/amine/brine mixture.

CCCCCCCCCCCCN(C)C [N-N-dimethyl-1-dodeanamine, N N-Dimethyl-1-Dodecanamine]
pH below which complete ionization and solubilization of the amine in the water was observed [1]: ~6.0 pH | pH below which complete ionization and solubilization in the water of the amine was observed [2]: ~6.7 pH | pH below which complete ionization and solubilization in the water of the amine was observed [3]: ~6.7 pH
